Experimental data published in patent EP1708721B1, “MYOCARDIAL PERFUSION IMAGING USING ADENOSINE RECEPTOR AGONISTS” (Gilead Sciences, Inc., priority 2004, dated 2005).

Tested on: healthy volunteers
Assay: Example 3: maximum tolerated dose and safety after a single IV bolus, supine and standing
Type: in vivo
Procedure: This Example is a study performed to evaluate (1) the maximum tolerated dose of CVT-3146 and (2) the pharmacokinetic profile of CVT-3146 in healthy volunteers, after a single IV bolus dose.
The study was performed using thirty-six healthy, non-smoking male subjects between the ages of 18 and 59 and within 15% of ideal body weight
The study was performed in phase 1, single center, double-blind, randomized, placebo-controlled, crossover, ascending dose study. Randomization was to CVT-3146 or placebo, in both supine and standing positions.
CVT-3146 was administered as an IV bolus (20 seconds) in ascending doses of […], 10, 20 and 30 µg/kg.
Subjects received either CVT-3146 or placebo on Day 1 supine, then crossover treatment on Day 2 supine. On Day 3, subjects received CVT-3146 or placebo standing, then crossover treatment on Day 4 standing.
Patient safety was monitored by ECG, laboratory assessments, and collection of vital signs and adverse events. Pharmacokinetics: • Plasma samples were drawn during supine phase (Days 1 and 2) at 0, 1, 2, 3, 4, 5, 7,10, 15, 20, 30, 45 minutes after dosing and at 1, 1.5., 2, 4, 6, 8,12 and 24 hours after dosing. Urine was collected for 24 hours for […] excretion. Pharmacodynamics: • The study evaluated the relationship of changes in heart rate to dose in both standing and supine positions and plasma concentration in the supine position.

[1] = severe in intensity, 20 µg/kg Standing, 4 subjects per group

In the case of `CNC(=O)c1cnn(-c2nc(N)c3ncn([C@@H]4O[C@H](CO)[C@@H](O)[C@H]4O)c3n2)c1` [CVT-3146, (1-{9-[(4S,2R,3R,5R)-3,4-dihydroxy-5-(hydroxymethyl)oxolan-2-yl]-6-aminopurin-2-yl}pyrazol-4-yl)-N-methylcarboxamide], the serious adverse events (IV bolus 0.1 to 30 µg/kg) is reported as “no serious adverse events”, the “Number of Subjects with AE: Dizziness” value [1] is reported as 1 and the “Number of Subjects with AE: Palpitation” value [1] is reported as 0. For the same compound, the “Number of Subjects with AE: Syncope” value [1] was 1 and the “Number of Subjects with AE: Dizziness” value (severe in intensity, 30 µg/kg Supine, 4 subjects per group) was 0.
